Measured values taken from PubChem BioAssay (NCI).
Where “and” joins values, the source holds several entries; their conditions need not be identical. Equal values may be shown once.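 Tested at 5 concentrations; 48 h exposure; 96-well plates; endpoints linearly interpolated, else capped at highest concentration. Here, GI50 denotes the concentration required for 50% inhibition of growth. TGI denotes the concentration required for complete inhibition of growth.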

Experiments:
Test in all cases: NCI anticancer screen, dose series, 48 h
A498 renal = tested on: A498 renal
TK-10 renal = tested on: TK-10 renal
HCT-116 colon = tested on: HCT-116 colon
CCRF-CEM leukemia = tested on: CCRF-CEM leukemia
MCF7 breast = tested on: MCF7 breast
HOP-92 NSCLC = tested on: HOP-92 NSCLC
HCC-2998 colon = tested on: HCC-2998 colon
RPMI-8226 leukemia = tested on: RPMI-8226 leukemia
ACHN renal = tested on: ACHN renal
SK-MEL-28 melanoma = tested on: SK-MEL-28 melanoma
COLO 205 colon = tested on: COLO 205 colon
MDA-MB-231 breast = tested on: MDA-MB-231 breast
SNB-19 CNS = tested on: SNB-19 CNS
OVCAR-8 ovarian = tested on: OVCAR-8 ovarian
SF-539 CNS = tested on: SF-539 CNS
PC-3 prostate = tested on: PC-3 prostate
MDA-N = tested on: MDA-N
SF-295 CNS = tested on: SF-295 CNS
CAKI-1 renal = tested on: CAKI-1 renal
SR leukemia = tested on: SR leukemia
KM12 colon = tested on: KM12 colon
SN12C renal = tested on: SN12C renal
OVCAR-5 ovarian = tested on: OVCAR-5 ovarian
U251 CNS = tested on: U251 CNS
DU-145 prostate = tested on: DU-145 prostate
OVCAR-4 ovarian = tested on: OVCAR-4 ovarian
MALME-3M melanoma = tested on: MALME-3M melanoma
NCI/ADR-RES ovarian = tested on: NCI/ADR-RES ovarian
LOX IMVI melanoma = tested on: LOX IMVI melanoma
NCI-H460 lung = tested on: NCI-H460 lung
T-47D breast = tested on: T-47D breast
MOLT-4 leukemia = tested on: MOLT-4 leukemia
NCI-H226 lung = tested on: NCI-H226 lung
NCI-H522 lung = tested on: NCI-H522 lung
A549 NSCLC = tested on: A549 NSCLC
IGROV1 ovarian = tested on: IGROV1 ovarian
BT-549 breast = tested on: BT-549 breast
HOP-62 NSCLC = tested on: HOP-62 NSCLC
UACC-257 melanoma = tested on: UACC-257 melanoma
EKVX NSCLC = tested on: EKVX NSCLC
M14 melanoma = tested on: M14 melanoma
SK-OV-3 ovarian = tested on: SK-OV-3 ovarian
SF-268 CNS = tested on: SF-268 CNS
786-0 renal = tested on: 786-0 renal
HT29 colon = tested on: HT29 colon
MDA-MB-435 = tested on: MDA-MB-435
UACC-62 melanoma = tested on: UACC-62 melanoma
HCT-15 colon = tested on: HCT-15 colon
HS 578T breast = tested on: HS 578T breast
HL-60(TB) leukemia = tested on: HL-60(TB) leukemia
UO-31 renal = tested on: UO-31 renal
NCI-H23 lung = tested on: NCI-H23 lung
SK-MEL-2 melanoma = tested on: SK-MEL-2 melanoma
SNB-75 CNS = tested on: SNB-75 CNS
RXF 393 renal = tested on: RXF 393 renal
SW-620 colon = tested on: SW-620 colon
OVCAR-3 ovarian = tested on: OVCAR-3 ovarian
K-562 leukemia = tested on: K-562 leukemia
SK-MEL-5 melanoma = tested on: SK-MEL-5 melanoma

In the case of `C=CCN(/C=C1\C(=O)O[C@H](COC)[C@@]2(C)C1=C(O)C(=O)C1=C2[C@H](OC(C)=O)C[C@]2(C)C(=O)CC[C@@H]12)CC=C`, the GI50 (A498 renal) is reported as 67.1 nM and 49 nM, the TGI (A498 renal) is reported as 2730 nM and 1260 nM and the GI50 (TK-10 renal) is reported as 128 nM and 437 nM. For the same molecule, the GI50 (HCT-116 colon) was 3910 nM and 1760 nM, the TGI (HCT-116 colon) was 20 µM and > 100 µM and the GI50 (CCRF-CEM leukemia) was 11.1 µM and 1.41 µM. The TGI (CCRF-CEM leukemia) was 20 µM and > 100 µM, the GI50 (MCF7 breast) was 186 nM and 257 nM and the TGI (MCF7 breast) was 5.95 µM and 22.8 µM. The TGI (HOP-92 NSCLC) was 20 µM and 4.4 µM, the GI50 (HCC-2998 colon) was 487 nM and 207 nM and the TGI (HCC-2998 colon) was 8.12 µM and 4.94 µM. For the same molecule, the GI50 (RPMI-8226 leukemia) was 7.91 µM and 1.42 µM, the TGI (RPMI-8226 leukemia) was 20 µM and 14.1 µM and the GI50 (ACHN renal) was 2740 nM and 449 nM. The TGI (ACHN renal) was 20 µM and > 100 µM, the GI50 (SK-MEL-28 melanoma) was 838 nM and the TGI (SK-MEL-28 melanoma) was 49.1 µM. The GI50 (COLO 205 colon) was 5.04 µM and 1.94 µM, the TGI (COLO 205 colon) was 20 µM and 26.3 µM and the GI50 (MDA-MB-231 breast) was 13.2 µM and 3.32 µM. The TGI (MDA-MB-231 breast) was 20 µM and > 100 µM, the GI50 (SNB-19 CNS) was 5.92 µM and 1.1 µM and the TGI (SNB-19 CNS) was 20 µM and 92.9 µM. For the same molecule, the GI50 (OVCAR-8 ovarian) was 10.2 µM and 3.09 µM, the TGI (OVCAR-8 ovarian) was 20 µM and > 100 µM and the GI50 (SF-539 CNS) was 3600 nM and 524 nM. The TGI (SF-539 CNS) was 20 µM and 6.41 µM, the TGI (PC-3 prostate) was greater than 100 µM and the GI50 (MDA-N) was 5.91 µM. For the same molecule, the TGI (MDA-N) was 20 µM, the GI50 (SF-295 CNS) was 93.5 nM and 205 nM and the TGI (SF-295 CNS) was 4.82 µM and 9.89 µM. The GI50 (CAKI-1 renal) was 188 nM and 200 nM, the TGI (CAKI-1 renal) was 20 µM and 10.1 µM and the GI50 (SR leukemia) was 860 nM and 644 nM. The TGI (SR leukemia) was 20 µM and 8.02 µM, the GI50 (KM12 colon) was 979 nM and 2190 nM and the TGI (KM12 colon) was 20 µM and 46.4 µM. For the same molecule, the GI50 (SN12C renal) was 1990 nM and 1070 nM, the TGI (SN12C renal) was 20 µM and > 100 µM and the GI50 (OVCAR-5 ovarian) was 2340 nM and 737 nM. For the same molecule, the TGI (OVCAR-5 ovarian) was 20 µM and 76.4 µM, the GI50 (U251 CNS) was 1600 nM and 3350 nM and the TGI (U251 CNS) was 20 µM and > 100 µM. The GI50 (DU-145 prostate) was 11.2 µM and 1.27 µM, the TGI (DU-145 prostate) was 20 µM and > 100 µM and the GI50 (OVCAR-4 ovarian) was 2970 nM and 2580 nM. For the same molecule, the TGI (OVCAR-4 ovarian) was 20 µM and > 100 µM, the TGI (MALME-3M melanoma) was 5.5 µM and 8.3 µM and the GI50 (NCI/ADR-RES ovarian) was 5.76 µM and 2.34 µM. The TGI (NCI/ADR-RES ovarian) was 20 µM and > 100 µM, the GI50 (LOX IMVI melanoma) was 547 nM and 1890 nM and the TGI (LOX IMVI melanoma) was 20 µM and 21.4 µM. For the same molecule, the GI50 (NCI-H460 lung) was 278 nM and 374 nM, the TGI (NCI-H460 lung) was 20 µM and > 100 µM and the TGI (T-47D breast) was 20 µM and > 100 µM. The GI50 (MOLT-4 leukemia) was 1580 nM and 813 nM, the TGI (MOLT-4 leukemia) was 20 µM and 17.1 µM and the GI50 (NCI-H226 lung) was 364 nM and 1160 nM. The GI50 (NCI-H522 lung) was 6.46 µM and 2.87 µM, the TGI (NCI-H522 lung) was 20 µM and 22.2 µM and the GI50 (A549 NSCLC) was 151 nM and 361 nM. For the same molecule, the GI50 (IGROV1 ovarian) was 145 nM and 206 nM, the TGI (BT-549 breast) was 20 µM and 3.68 µM and the TGI (HOP-62 NSCLC) was 20 µM and 71.3 µM. For the same molecule, the GI50 (UACC-257 melanoma) was 9.18 µM and 2.26 µM, the TGI (UACC-257 melanoma) was 20 µM and > 100 µM and the GI50 (EKVX NSCLC) was 474 nM and 77.9 nM. The TGI (EKVX NSCLC) was 10.4 µM and 1.67 µM, the GI50 (M14 melanoma) was 2980 nM and the TGI (M14 melanoma) was greater than 100 µM. For the same molecule, the GI50 (SK-OV-3 ovarian) was 3380 nM and 596 nM, the TGI (SK-OV-3 ovarian) was 20 µM and 19.8 µM and the GI50 (SF-268 CNS) was 992 nM and 1460 nM. For the same molecule, the TGI (SF-268 CNS) was 20 µM and > 100 µM, the TGI (786-0 renal) was 20 µM and 25.7 µM and the GI50 (HT29 colon) was 101 nM and 558 nM. The TGI (HT29 colon) was 20 µM and > 100 µM, the GI50 (MDA-MB-435) was 1290 nM and 3630 nM and the TGI (MDA-MB-435) was 13.5 µM and 46.9 µM. The GI50 (UACC-62 melanoma) was 110 nM and 75 nM, the TGI (UACC-62 melanoma) was 1380 nM and 2380 nM and the GI50 (HCT-15 colon) was 2620 nM and 787 nM. For the same molecule, the TGI (HCT-15 colon) was 20 µM and > 100 µM, the GI50 (HS 578T breast) was 173 nM and 25 nM and the GI50 (HL-60(TB) leukemia) was 210 nM and 439 nM. For the same molecule, the TGI (HL-60(TB) leukemia) was 7.46 µM and 11.2 µM, the GI50 (UO-31 renal) was 1510 nM and 331 nM and the TGI (UO-31 renal) was 20 µM and > 100 µM. The GI50 (NCI-H23 lung) was 8.94 µM and 2.69 µM, the TGI (NCI-H23 lung) was 20 µM and > 100 µM and the GI50 (SK-MEL-2 melanoma) was 3670 nM and 1480 nM. For the same molecule, the TGI (SK-MEL-2 melanoma) was 20 µM and 8.33 µM, the GI50 (SNB-75 CNS) was 291 nM and 32.7 nM and the GI50 (RXF 393 renal) was 9.22 nM and 14.9 nM. The TGI (RXF 393 renal) was 261 nM and 196 nM, the GI50 (SW-620 colon) was 6.16 µM and 2.09 µM and the TGI (SW-620 colon) was 20 µM and > 100 µM. The TGI (OVCAR-3 ovarian) was 20 µM and 4.16 µM, the GI50 (K-562 leukemia) was 15.1 µM and 12 µM and the TGI (K-562 leukemia) was 20 µM and > 100 µM. The GI50 (SK-MEL-5 melanoma) was 3220 nM and 2180 nM and the TGI (SK-MEL-5 melanoma) was 20 µM and 11.6 µM.
